In patent US12180207B2 (ARRAY BIOPHARMA INC., priority 2018, dated 2024):

Key:
[1] = target: recombinant human FGFR2 cytoplasmic domain (amino acids 403-822) (Homo sapiens (Human), UniProt P21802); assay: FGFR2 enzyme activity assay (LanthaScreen TR-FRET); assay type: biochemical; settings: 15 μM ATP, 20 min incubation at 22° C., average of multiple determinations if made, read-out: FGFR2 Enz FRET IC50
Method in brief: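 Substrate phosphorylation was read by TR-FRET using Eu-PY20 antibody (60 min, 22 °C) after a 20 min, 22 °C reaction. The reaction used 15 μM ATP, 100 nM fluorescent poly-GT peptide and His-tagged FGFR2 403-822 ([…]) at pH 7.5 with 2% DMSO.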

[2] = target: HEK-293 cells transfected with dox-inducible human wild type FGFR1 (Homo sapiens (Human), UniProt P11362); assay: FGFR1 pERK cell assay; assay type: cell-based; settings: HEK-293 dox-inducible FGFR1, 1 hour compound, 100 ng/ml FGF-acidic; maximum concentration 5 μM
Sequence of HEK-293 cells transfected with dox-inducible human wild type FGFR1 (P11362 22-822): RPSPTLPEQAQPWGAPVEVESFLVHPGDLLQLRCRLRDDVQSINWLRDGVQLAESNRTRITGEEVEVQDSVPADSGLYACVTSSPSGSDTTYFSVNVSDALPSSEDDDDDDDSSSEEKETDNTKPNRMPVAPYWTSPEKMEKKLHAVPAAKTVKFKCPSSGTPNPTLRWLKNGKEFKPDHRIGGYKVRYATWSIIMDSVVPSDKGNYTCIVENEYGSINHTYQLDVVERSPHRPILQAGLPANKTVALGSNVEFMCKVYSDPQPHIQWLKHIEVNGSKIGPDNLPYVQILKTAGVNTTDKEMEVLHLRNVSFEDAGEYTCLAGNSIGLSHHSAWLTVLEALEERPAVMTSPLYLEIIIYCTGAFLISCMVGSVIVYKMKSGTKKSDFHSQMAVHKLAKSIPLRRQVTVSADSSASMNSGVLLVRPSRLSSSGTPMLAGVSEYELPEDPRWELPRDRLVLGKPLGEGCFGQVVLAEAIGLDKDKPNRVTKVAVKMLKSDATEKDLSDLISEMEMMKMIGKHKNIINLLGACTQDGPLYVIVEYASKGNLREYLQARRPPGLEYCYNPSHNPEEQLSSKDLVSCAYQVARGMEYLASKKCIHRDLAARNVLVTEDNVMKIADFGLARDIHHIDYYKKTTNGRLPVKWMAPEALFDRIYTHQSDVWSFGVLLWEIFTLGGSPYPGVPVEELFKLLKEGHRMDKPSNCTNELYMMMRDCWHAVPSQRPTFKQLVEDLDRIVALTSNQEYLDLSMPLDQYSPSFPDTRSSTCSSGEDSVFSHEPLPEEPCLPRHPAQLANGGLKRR
Method in brief: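 In HEK-293 cells with dox-induced human wild-type FGFR1, compounds (1:3 dilutions, top 5 μM final) were applied 1 h at 37°C before 5 min stimulation with 100 ng/ml FGF-acidic. Phospho-ERK1/2 measured by MSD sandwich immunoassay; IC50 from 4-parameter fit of POC versus vehicle and control compound.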

[3] = target: T1, HEK-293 cells transfected with dox-inducible human wild type FGFR3 (Homo sapiens (Human), UniProt P22607); assay: FGFR3 pERK cell assay; assay type: cell-based; settings: HEK-293 dox-inducible FGFR3, 1 hour compound, 100 ng/ml FGF-acidic; maximum concentration 5 μM
T1 sequence (P22607 23-806): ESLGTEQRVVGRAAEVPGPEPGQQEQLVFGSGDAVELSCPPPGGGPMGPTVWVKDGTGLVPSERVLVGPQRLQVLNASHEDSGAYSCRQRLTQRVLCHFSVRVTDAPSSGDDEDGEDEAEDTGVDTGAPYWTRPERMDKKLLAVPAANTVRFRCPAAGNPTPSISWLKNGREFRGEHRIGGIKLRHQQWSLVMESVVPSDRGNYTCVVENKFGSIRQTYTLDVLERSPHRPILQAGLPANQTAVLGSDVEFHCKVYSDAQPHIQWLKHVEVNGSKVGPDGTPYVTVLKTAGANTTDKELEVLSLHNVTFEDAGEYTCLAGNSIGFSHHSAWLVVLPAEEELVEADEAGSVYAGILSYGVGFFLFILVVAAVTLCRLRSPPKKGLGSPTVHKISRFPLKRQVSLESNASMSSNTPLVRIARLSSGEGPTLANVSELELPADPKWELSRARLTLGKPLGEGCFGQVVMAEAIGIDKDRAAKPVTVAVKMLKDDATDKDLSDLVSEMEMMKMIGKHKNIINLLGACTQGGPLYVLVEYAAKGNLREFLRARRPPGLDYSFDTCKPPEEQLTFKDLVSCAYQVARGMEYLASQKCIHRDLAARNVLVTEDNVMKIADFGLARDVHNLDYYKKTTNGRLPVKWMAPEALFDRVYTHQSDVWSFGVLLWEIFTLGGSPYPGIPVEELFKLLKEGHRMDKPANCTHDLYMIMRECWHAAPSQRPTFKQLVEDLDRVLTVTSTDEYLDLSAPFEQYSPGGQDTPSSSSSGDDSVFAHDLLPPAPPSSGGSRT
Method in brief: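 Doxycycline-induced cells preincubated 1 h at 37 °C with compound (1:3 dilutions, top 5 μM final), then stimulated 5 min with 100 ng/ml FGF-acidic. Lysate phospho-ERK1/2 measured by MSD sandwich assay; IC50 at 50 POC from 4-parameter fit, normalised to no-compound and control-compound wells.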

[4] = target: T1, HEK-293 cells transfected with dox-inducible human wild type FGFR3; assay: FGFR3 pFGFR cell assay (ELISA); assay type: cell-based; settings: HEK-293 dox-inducible FGFR3, 1 hour compound, 100 ng/ml FGF-acidic
Method in brief: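 Doxycycline-induced (1 μg/ml) HEK-293 cells expressing wild-type human FGFR3, treated 1 h with compound (1:3 series, top final 5 μM), then stimulated 5 min with 100 ng/ml FGF-acidic. Phospho-FGFR3 measured by ELISA (total FGFR3 capture, phosphotyrosine detection, OD 450 nm); IC50 from 4-parameter fit of POC values.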

Sequence of recombinant human FGFR2 cytoplasmic domain (amino acids 403-822) (P21802 402-821): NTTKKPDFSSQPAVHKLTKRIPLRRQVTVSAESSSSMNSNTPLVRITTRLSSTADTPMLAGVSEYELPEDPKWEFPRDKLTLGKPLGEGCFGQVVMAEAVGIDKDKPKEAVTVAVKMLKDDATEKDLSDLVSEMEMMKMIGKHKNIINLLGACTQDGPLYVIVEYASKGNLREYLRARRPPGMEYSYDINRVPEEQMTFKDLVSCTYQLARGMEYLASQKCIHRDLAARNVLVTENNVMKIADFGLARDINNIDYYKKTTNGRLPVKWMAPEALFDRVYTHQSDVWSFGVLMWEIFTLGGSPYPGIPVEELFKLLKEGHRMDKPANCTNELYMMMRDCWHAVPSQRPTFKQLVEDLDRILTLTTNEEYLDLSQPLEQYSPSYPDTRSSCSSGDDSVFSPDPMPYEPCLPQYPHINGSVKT

Structure (SMILES)	IC50 [1]	IC50 [2]	IC50 [3]	IC50 [4]
C=CC(=O)N1C2CC1CN(C(=O)N1CCC(n3cc(-c4cc(OC)c5c(C#N)cnn5c4)cn3)CC1)C2 [Example 1, 6-(1-(1-(6-acryloyl-3,6-diazabicyclo[3.1.1]heptane-3-carbonyl)piperidin-4-yl)-1H-pyrazol-4-yl)-4-methoxypyrazolo[1,5-a]pyridine-3-carbonitrile]	15 nM	525 nM	86 nM	26 nM
C=CC(=O)N1C2COCC1CN(C(=O)N1CCC(n3cc(-c4cc(OC)c5c(C#N)cnn5c4)cn3)CC1)C2 [Example 3, 6-(1-(1-(9-acryloyl-3-oxa-7,9-diazabicyclo[3.3.1]nonane-7-carbonyl)piperidin-4-yl)-1H-pyrazol-4-yl)-4-methoxypyrazolo[1,5-a]pyridine-3-carbonitrile]	5 nM	870 nM	108 nM	41 nM
C=CC(=O)N1CCC(F)(C(=O)N2CCC(n3cc(-c4cc(OC)c5c(C#N)cnn5c4)cn3)CC2)C1 (stereo not drawn) [Example 30, 6-(1-(1-(1-acryloyl-3-fluoropyrrolidine-3-carbonyl)piperidin-4-yl)-1H-pyrazol-4-yl)-4-methoxypyrazolo[1,5-a]pyridine-3-carbonitrile]	3 nM	–	–	23 nM
C=CC(=O)N1CC(C(=O)N2CCC(n3cc(-c4cc(OC)c5c(C#N)cnn5c4)cn3)CC2)C1 [Example 36, 6-(1-(1-(1-acryloylazetidine-3-carbonyl)piperidin-4-yl)-1H-pyrazol-4-yl)-4-methoxypyrazolo[1,5-a]pyridine-3-carbonitrile]	–	363 nM	43 nM	37 nM
C=CC(=O)N1CC(C)(C(=O)N2CCC(n3cc(-c4cc(OC)c5c(C#N)cnn5c4)cn3)CC2)C1 [Example 38, 6-(1-(1-(1-acryloyl-3-methylazetidine-3-carbonyl)piperidin-4-yl)-1H-pyrazol-4-yl)-4-methoxypyrazolo[1,5-a]pyridine-3-carbonitrile]	3 nM	–	–	9 nM
C=CC(=O)N1CC(CC)(C(=O)N2CCC(n3cc(-c4cc(OC)c5c(C#N)cnn5c4)cn3)CC2)C1 [Example 40, 6-(1-(1-(1-acryloyl-3-ethylazetidine-3-carbonyl)piperidin-4-yl)-1H-pyrazol-4-yl)-4-methoxypyrazolo[1,5-a]pyridine-3-carbonitrile]	3 nM	–	–	16 nM
C=CC(=O)Nc1cccc(C(=O)N2CC[C@@H](n3cc(-c4cc(OC)c5c(C#N)cnn5c4)cn3)C2)c1 [Example 56, (R)-N-(3-(3-(4-(3-cyano-4-methoxypyrazolo[1,5-a]pyridin-6-yl)-1H-pyrazol-1-yl)pyrrolidine-1-carbonyl)phenyl)acrylamide]	8 nM	–	–	182 nM
C=CC(=O)N1CC(C(=O)N2CC[C@@H](n3cc(-c4cc(OC)c5c(C#N)cnn5c4)cn3)C2)C1 [Example 59, (R)-6-(1-(1-(1-acryloylazetidine-3-carbonyl)pyrrolidin-3-yl)-1H-pyrazol-4-yl)-4-methoxypyrazolo[1,5-a]pyridine-3-carbonitrile]	16 nM	–	–	667 nM
C=CC(=O)Nc1ccc(C(=O)N2CC[C@H](n3cc(-c4cc(OC)c5c(C#N)cnn5c4)cn3)C2)cc1 [Example 66, (S)-N-(4-(3-(4-(3-cyano-4-methoxypyrazolo[1,5-a]pyridin-6-yl)-1H-pyrazol-1-yl)pyrrolidine-1-carbonyl)phenyl)acrylamide]	5 nM	–	–	82 nM
C=CC(=O)Nc1ccc(C(=O)N2CC[C@H](n3cc(-c4cc(OC)c5c(C#N)cnn5c4)cn3)C2)c(C)c1 [Example 68, (S)-N-(4-(3-(4-(3-cyano-4-methoxypyrazolo[1,5-a]pyridin-6-yl)-1H-pyrazol-1-yl)pyrrolidine-1-carbonyl)-3-methylphenyl)acrylamide]	4 nM	–	–	187 nM
C=CC(=O)Nc1ccc(C(=O)N2CC[C@H](n3cc(-c4cc(OC)c5c(C#N)cnn5c4)cn3)C2)c(OC)c1 [Example 69, (S)-N-(4-(3-(4-(3-cyano-4-methoxypyrazolo[1,5-a]pyridin-6-yl)-1H-pyrazol-1-yl)pyrrolidine-1-carbonyl)-3-methoxyphenyl)acrylamide]	6 nM	–	–	311 nM
C=CC(=O)Nc1ccc(C(=O)N2CC[C@H](n3cc(-c4cc(OC)c5c(C#N)cnn5c4)cn3)C2)cc1C [Example 70, (S)-N-(4-(3-(4-(3-cyano-4-methoxypyrazolo[1,5-a]pyridin-6-yl)-1H-pyrazol-1-yl)pyrrolidine-1-carbonyl)-2-methylphenyl)acrylamide]	4 nM	–	–	104 nM
C=CC(=O)Nc1ccc(C(=O)N2CC[C@H](n3cc(-c4cc(OC)c5c(C#N)cnn5c4)cn3)C2)cc1OC [Example 71, (S)-N-(4-(3-(4-(3-cyano-4-methoxypyrazolo[1,5-a]pyridin-6-yl)-1H-pyrazol-1-yl)pyrrolidine-1-carbonyl)-2-methoxyphenyl)acryla72 mide]	4 nM	–	–	35 nM
C=CC(=O)N1CC(C(=O)N2CC[C@H](n3cc(-c4cc(OC)c5c(C#N)cnn5c4)cn3)C2)C1 [Example 73, (S)-6-(1-(1-(1-acryloylazetidine-3-carbonyl)pyrrolidin-3-yl)-1H-pyrazol-4-yl)-4-methoxypyrazolo[1,5-a]pyridine-3-carbonitrile]	4 nM	–	–	313 nM
C=CC(=O)N1CC[C@H](C(=O)N2CC(n3cc(-c4cc(OC)c5c(C#N)cnn5c4)cn3)C2)C1 [Example 76, (S)-6-(1-(1-(1-acryloylpyrrolidine-3-carbonyl)azetidin-3-yl)-1H-pyrazol-4-yl)-4-methoxypyrazolo[1,5-a]pyridine-3-carbonitrile]	17 nM	–	–	1900 nM
C=CC(=O)N1CC(C(=O)N2CC(n3cc(-c4cc(OC)c5c(C#N)cnn5c4)cn3)C2)C1 [Example 78, 6-(1-(1-(1-acryloylazetidine-3-carbonyl)azetidin-3-yl)-1H-pyrazol-4-yl)-4-methoxypyrazolo[1,5-a]pyridine-3-carbonitrile]	23 nM	–	–	536 nM
C=CC(=O)N1CC(CN2CC(n3cc(-c4cc(OC)c5c(C#N)cnn5c4)cn3)C2)C1 [Example 81, 6-(1-(1-((1-acryloylazetidin-3-yl)methyl)azetidin-3-yl)-1H-pyrazol-4-yl)-4-methoxypyrazolo[1,5-a]pyridine-3-carbonitrile]	8 nM	–	–	117 nM
C=CC(=O)Nc1ccc(C(=O)N2CCC(n3cc(-c4cc(OC)c5c(C#N)cnn5c4)cn3)CC2)cc1 [Example 177, N-(4-(4-(4-(3-cyano-4-methoxypyrazolo[1,5-a]pyridin-6-yl)-1H-pyrazol-1-yl)piperidine-1-carbonyl)phenyl)acrylamide]	4 nM	–	–	57 nM
C=CS(=O)(=O)N[C@H]1CC[C@H](C(=O)N2CCC(n3cc(-c4cc(OC)c5c(C#N)cnn5c4)cn3)CC2)C1 [Example 190, N-((1S,3S)-3-(4-(4-(3-cyano-4-methoxypyrazolo[1,5-a]pyridin-6-yl)-1H-pyrazol-1-yl)piperidine-1-carbonyl)cyclopentyl)-ethenesulfonamide]	3 nM	–	–	32 nM
C=CS(=O)(=O)N[C@@H]1CC[C@H](C(=O)N2CCC(n3cc(-c4cc(OC)c5c(C#N)cnn5c4)cn3)CC2)C1 [Example 191, N-((1R,3S)-3-(4-(4-(3-cyano-4-methoxypyrazolo[1,5-a]pyridin-6-yl)-1H-pyrazol-1-yl)piperidine-1-carbonyl)cyclopentyl)-ethenesulfonamide]	5 nM	–	–	20 nM
